US20220009988A1, “PEPTIDE MODULATORS OF THE INTERACTION BETWEEN HUMAN C-PEPTIDE AND HUMAN ELASTIN RECEPTOR FOR THERAPEUTIC USE” (Biotempt B.V., priority 2017, published 2022)

What was measured:
[1] = system: glucose-induced vascular dysfunction; conditions: cited from earlier work; for potency on vascular dysfunction relative to native C-peptide / prevention of vascular dysfunction (active / inactive): skin chamber granulation tissue model in rats; for normalization (%) of 30 mM glucose-induced vascular dysfunction: rats, FIG. 1 adapted from Ido et al. 1997
[2] = system: cell membrane-bound C-peptide; conditions: cited from earlier work
[3] = system: human renal tubular cells; conditions: cited from earlier work
[4] = system: MAP kinase signaling pathways; conditions: cited from earlier work
Na^+K^+ATPase = conditions: rat renal tubule cells; cited from earlier work
CD4+ immune cells = assay: classical Boyden chamber experiment, migration of CD4+ immune cells; format: cell-based; conditions: V14-peptide at 1.3 microM; C-peptide at 10 nM
Text: Moreover, additional examples of fragments of the human C-peptide are provided herein and ^14, all bearing a mid-portion hexapeptide 12 SEQ ID NO:34 (LGGGPG) 17, that all prevented vascular dysfunction whereas other human C-peptide fragments, wherein the hexapeptide mid-portion was disrupted, were found not active. […] Human C-peptide and its xGxxPG containing fragments may thus be considered an unexpected species of the genus of a larger class of peptides: elastin peptides capable of elastin receptor activation, whereby excess C-peptide may be meddling with elastin receptor mediated tissue repair, modulating chronic-low grade inflammation, IR and hypertension. […] This provides a substantial jump in our understanding of the causes of metabolic syndrome and other lifestyle- or age-related conditions of IR. […] It is provided to do these tests with synthetic human C-peptide variants or fragments, provided with or without the sequence GxxP, to study binding, including classical elastin receptor antagonist V14 peptide to study inhibition of binding. Similarly, one can do the C-peptide tests in a skin chamber granulation tissue model of vascular function ^14, or test synthetic, inducibly or constitutively expressed C-peptide in established models of atherosclerosis, Neu-1 mediated IR or PPCA mediated hypertension ^7-9.

bioactivity of C-peptide = assay: preliminary in-vitro inhibition of bioactivity of C-peptide; conditions: preliminary in-vitro results
[5] = target: human elastin receptor (elastin binding protein, EBP) on CD4+ immune cells (human)

Substance: D--1EAEDLQVGQVELGGGPGAGSLQPLALEGSLQ31 [enantio C-peptide]
- potency on vascular dysfunction relative to native C-peptide [1]: equipotent to native C-peptide

Substance: DLQVGQVELGGGPGAGSLQPL [SEQ ID NO:20]
- normalization (%) of 30 mM glucose-induced vascular dysfunction [1]: significant normalization

Substance: DLQVGQVELGGGPGAGSLQPLALEGSLQ [SEQ ID NO:10]
- normalization (%) of 30 mM glucose-induced vascular dysfunction [1]: significant normalization

Substance: EAEDLQVGQVELGGGPGAGSLQPL (EAEDLQVGQVELGGGPGAGSLQPLAL) [SEQ ID NO:17]
- normalization (%) of 30 mM glucose-induced vascular dysfunction [1]: significant normalization

Substance: EAENPQAGAVELGGGLGGLQALALEGPPQ [pig C-peptide]
- prevention of vascular dysfunction (active / inactive) [1]: inactive

Substance: EGSLQ [SEQ ID NO:6]
- displacement of cell membrane-bound C-peptide [2]: displaces
- intracellular Ca2+ [3]: may induce intracellular Ca2+ increases
- MAP kinase signaling pathways [4]: stimulates

Substance: ELGGGPGAG [SEQ ID NO:9]
- Na^+K^+ATPase activity (Na^+K^+ATPase): stimulate

Substance: ELGGGPGAGSLQPL [SEQ ID NO:176]
- normalization (%) of 30 mM glucose-induced vascular dysfunction [1]: significant normalization

Substance: EVARQ [SEQ ID NO:7]
- intracellular Ca2+ [3]: may induce intracellular Ca2+ increases

Substance: EVEDPQVPQLELGGGPEAGDLQTLALEVARQ [Rat C-peptide]
- prevention of vascular dysfunction (active / inactive) [1]: active

Substance: GGGPGAG [SEQ ID NO:8]
- normalization (%) of 30 mM glucose-induced vascular dysfunction [1]: normalize

Substance: GQVELGGGPGAGSLQPLALEGSLQ [SEQ ID NO:13]
- normalization (%) of 30 mM glucose-induced vascular dysfunction [1]: significant normalization

Substance: LGGGPGAGSLQPLALEGSLQ [SEQ ID NO:14]
- normalization (%) of 30 mM glucose-induced vascular dysfunction [1]: significant normalization

Substance: QLSGELALPQLSGAGPGGGLEVQGVQLDEAE (retro C-peptide)
- potency on vascular dysfunction relative to native C-peptide [1]: equipotent to native C-peptide

Substance: VGQVELGGGPGAGSLQPL [SEQ ID NO:175]
- normalization (%) of 30 mM glucose-induced vascular dysfunction [1]: significant normalization

Substance: VVGSPSAQDEASPL [V14-peptide]
- C-peptide-induced CD4-migration inhibited, antagonized and diminished (CD4+ immune cells): > 50%
- inhibition of bioactivity of C-peptide (bioactivity of C-peptide): inhibition

Substance: human C-peptide
- migration of CD4+ immune cells in a classical Boyden chamber experiment (% increase of migration) [5]: 100
